Measured values: article PMC9447987, “Long-term memory CD8^+ T cells specific for SARS-CoV-2 in individuals who received the BNT162b2 mRNA vaccine” (Nature Communications, 2022)

How the values were obtained:
[1] = test system: HLA-A*24:02-restricted CD8+ T cells; format: cell-based, human; details: for number of S-QI9-specific T cell populations that effectively recognized the peptide / number of individuals whose S-QI9-specific T cells moderately recognized the peptide / number of individuals whose S-QI9-specific T cells uniformly recognized variant peptide and S-QI9 / number of individuals whose S-QI9-specific bulk T cells exhibited no or very weak recognition: 13 HLA-A*24:02+ individuals, C1R-A2402 pre-pulsed with 1 nM peptide
[2] = test system: HLA-A*24:02-peptide complexes; test: Peptide–MHC Complex Dissociation Assay using RMA-S-A2402 cells; format: binding, human; details: for % Mean Fluoresence: Fig.7d; for stability of the HLA-A*24:02-peptide complex (in words): RMA-S-A2402 cells, 10 μM peptide, 0, 1, 2 and 4 h
[3] = target: HLA-A*24:02 (Homo sapiens, UniProt P04439, D101N/D140Y/D185E/E176V/E190D/F33S/G103R/G107R/I119L/I121M/I306V/K335N/L105A/L180Q/L300P/N151K/N90K/Q86E/Q94H/R106L/R138H/R89G/T104I/T345S/V100E/W191G/Y123F); test: HLA stabilization assay using RMA-S-A2402 cells; format: binding; details: for MFI, HLA-A2402 (APC), representative staining: RMA-S-A2402 cells, Suppl. Fig. 3d (for Fig. 7c), peptide(-) 11.3, 26 °C (Maximum) 24.0; for affinity for HLA-A*24:02, times weaker than that of S-QI9: approximately, peptide 0.03 to 10 μM
[4] = post-incubation 0 hour, replicate 1
[5] = post-incubation 0 hour, replicate 2
[6] = post-incubation 0 hour, replicate 3
[7] = post-incubation 1 hour, replicate 1
[8] = post-incubation 1 hour, replicate 2
[9] = post-incubation 1 hour, replicate 3
[10] = post-incubation 2 hour, replicate 1
[11] = post-incubation 2 hour, replicate 2
[12] = post-incubation 2 hour, replicate 3
[13] = post-incubation 4 hour, replicate 1
[14] = post-incubation 4 hour, replicate 2
[15] = post-incubation 4 hour, replicate 3

Sequence	sensitivity of S-QI9-specific T cells for the peptide compared with the SARS-CoV-2 S-QI9 epitope (in words) [1]	number of S-QI9-specific T cell populations that effectively recognized the peptide [1]	% Mean Fluoresence [2, 4] [%]	% Mean Fluoresence [2, 5] [%]	% Mean Fluoresence [2, 6] [%]	% Mean Fluoresence [2, 7] [%]	% Mean Fluoresence [2, 8] [%]	% Mean Fluoresence [2, 9] [%]	% Mean Fluoresence [2, 10] [%]	% Mean Fluoresence [2, 11] [%]	% Mean Fluoresence [2, 12] [%]	% Mean Fluoresence [2, 13] [%]	% Mean Fluoresence [2, 14] [%]	% Mean Fluoresence [2, 15] [%]	stability of the HLA-A*24:02-peptide complex (in words) [2]	MFI, HLA-A2402 (APC), representative staining [3]	affinity for HLA-A*24:02, times weaker than that of S-QI9 [3]	number of individuals whose S-QI9-specific T cells moderately recognized the peptide [1]	number of individuals whose S-QI9-specific T cells uniformly recognized variant peptide and S-QI9 [1]	number of individuals whose S-QI9-specific bulk T cells exhibited no or very weak recognition [1]	other results
YYVKWPWYV [OC43]	higher sensitivity	13	100	100	100	70.4	82.2	77.7	54.3	54.5	58.1	20.6	25.6	22	identical to that of the HLA-A*24:02-S-QI9 peptide complex	45.9	10–30 times				
NYIKWPWWV [NL63]	much lower sensitivity		100	100	100	18.2	44	7.4	-22.6	35.4	-0.6	18.3	-7.8	2	substantially weaker	16.2		7	2	4	affinity for HLA-A*24:02 (in words) [3]: substantially weaker
TYIKWPWWV [229E]	much lower sensitivity		100	100	100	44.6	48.7	47.1	19.2	17	16.5	-1.1	-0.2	-1.9	weaker than that of the HLA-A*24:02-HKU1 or HLA-A*24:02-OC43 peptide complexes	41.6		7	2	4	
MYVKWPWYV [HKU1]	higher sensitivity	13	100	100	100	69.2	72.5	68.4	38.6	43	37.4	12.8	14	10	weaker than that of the HLA-A*24:02-S-QI9 peptide complex	49.8	10–30 times				
